# Laboratory results from patent US9328138B2 (priority 2011, dated 2016).
# Structures can show the parent of a compound that is named as a salt.
# Key:
# [1] = target: T1, HCV genotype 1b (BK) NS3 modified enzyme with a R155K mutation (Hepatitis C virus genotype 1b, UniProt P26663, R1181K); test: HCV NS3 protease time-resolved fluorescence (TRF) assay, genotype 1b R155K; assay type: biochemical; details: Ki 1b R155K
# T1 construct: HCV genotype 1b (BK) NS3 modified enzyme
# Summary of the method: (§1)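 Inhibitor titrations are mixed with NS3/NS4A in pH 7.5 HEPES buffer containing 10 mM DTT and 15% glycerol for 10 min before substrate (25 nM final) is added. After 6 h at room temperature, delayed fluorescence is read and fitted to a four-parameter curve for IC50.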
# [2] = target: HCV NS3 protease genotype 3a (3A-1) (Hepatitis C virus genotype 3a, UniProt Q81258); test: HCV NS3 protease time-resolved fluorescence (TRF) assay, genotype 3a; assay type: biochemical; details: Ki 3a
# Summary of the method: as §1
# [3] = genotype 1b (BK) NS3 R155K, single value
# [4] = first of two values printed in the cell (not explained)
# [5] = second of two values printed in the cell (not explained)
Structure (SMILES),"Ki [1, 3] [nM]",Ki [2] [nM],"Ki [1, 4] [nM]","Ki [1, 5] [nM]"
"C=C[C@@H]1C[C@]1(NC(=O)[C@@H]1C[C@@H]2CN1C(=O)[C@H](C(C)(C)C)NC(=O)O[C@@H]1C[C@H]1CCCCCc1c(nc3ccccc3c1OCCN1CCOC(C)(C)C1)O2)C(=O)NS(=O)(=O)C1(C)CC1 [Example 173, (1aR,5S,8S,10R,22aR)-5-tert-butyl-17-[2-(2,2-dimethylmorpholin-4-yl)ethoxy]-N-[(1R,2S)-2-ethenyl-1-{[(1-methylcyclopropyl)sulfonyl]carbamoyl}cyclopropyl]-3,6-dioxo-1,1a,3,4,5,6,9,10,18,19,20,21, 22,22a-tetradecahydro-8H-7,10-methanocyclopropa[18,19][1,10,3,6] dioxadiazacyclononadecino[11,12-b] quinoline-8-carboxamide]",0.34,9.5,–,–
"C=C[C@@H]1C[C@]1(NC(=O)[C@@H]1C[C@@H]2CN1C(=O)[C@H](C(C)(C)C)NC(=O)O[C@@H]1C[C@H]1CCCCCc1c(nc3ccccc3c1OC1CC3CCC(C1)N3CCOC)O2)C(=O)NS(=O)(=O)C1(C)CC1 (single isomer, unassigned) [Example 280]",–,4.65,0.024,0.28
"CC[C@@H]1C[C@]1(NC(=O)[C@@H]1C[C@@H]2CN1C(=O)[C@H](C1CCCC1)NC(=O)OC1(C)CCCC1CCCCCc1c(nc3ccccc3c1O)O2)C(=O)NS(=O)(=O)C1CC1 (single isomer, unassigned) [Example 32]",0.54,9.2,–,–
"C=C[C@@H]1C[C@]1(NC(=O)[C@@H]1C[C@@H]2CN1C(=O)[C@H](C(C)(C)C)NC(=O)O[C@@H]1C[C@H]1CCCCCc1c(nc3cc(C)ccc3c1OCCCNC)O2)C(=O)NS(=O)(=O)C1(C)CC1 [Example 149, (1aR,5S,8S,10R,22aR)-5-tert-butyl-N-[(1R,2S)-2-ethenyl-1-{[(1-methylcyclopropyl)sulfonyl]carbamoyl}cyclopropyl]-14-methyl-17-[3-(methylamino)propoxy]-3,6-dioxo-1,1a,3,4,5,6,9,10,18,19, 20,21,22,22a-tetradecahydro-8H-7,10-methanocyclopropa[1,19] [1,10,3,6]dioxadiazacyclonona decino[11,12-b]quinoline-8-carboxamide]",0.041,0.74,–,–
"C=C[C@@H]1C[C@]1(NC(=O)[C@@H]1C[C@@H]2CN1C(=O)[C@H](C1CCCC1)NC(=O)O[C@@H]1CCC[C@H]1CC/C=C/Cc1c(nc3ccccc3c1OCCCN)O2)C(=O)NS(=O)(=O)C1CC1 [Example 94, (3aR,7S,10S,12R,21E,24aS)-19-(3-aminopropoxy)-7-cyclopentyl-N-{(1R,2S)-1-[(cyclopropylsulfonyl)carbamoyl]-2-ethenylcyclopropyl}-5,8-dioxo-1,2,3,3a,5,6,7,8,11,12,20,23,24,24a-tetradecahydro-10H-9,12-methanocyclopenta[18,19][1,10,3,6]dioxadiazacyclononadecino[11,12-b]quinoline-10-carboxamide]",0.093,0.59,–,–
"C=C[C@@H]1C[C@]1(NC(=O)[C@@H]1C[C@@H]2CN1C(=O)[C@H](C1CCCC1)NC(=O)O[C@@H]1CCC[C@H]1CC/C=C/Cc1c(nc3ccccc3c1OC(C)=O)O2)C(=O)NS(=O)(=O)C1CC1 [Example 39, (3aR,7S,10S,12R,21E,24aS)-7-cyclopentyl-10-({(1R,2S)-1-[(cyclopropylsulfonyl)carbamoyl]-2-ethenylcyclopropyl}carbamoyl)-5,8-dioxo-1,2,3,3a,5,6,7,8,11,12,20,23,24,24a-tetradecahydro-10H-9,12-methanocyclopenta[18,19][1,10,3,6]dioxadiazacyclononadecino[11,12-b]quinolin-19-yl acetate]",0.13,3.5,–,–
"C=C[C@@H]1C[C@]1(NC(=O)[C@@H]1C[C@@H]2CN1C(=O)[C@H](C(C)(C)C)NC(=O)O[C@@H]1C[C@H]1CCCCCc1c(nc3c(F)cccc3c1OCCN1CCCCC1)O2)C(=O)NS(=O)(=O)C1(C)CC1 [Example 213, (1aR,5S,8S,10R,22aR)-5-tent-butyl-N-[(1R,2S)-2-ethenyl-1-{[(1-methylcyclopropyl)sulfonyl]carbamoyl}cyclopropyl]-13-fluoro-3,6-dioxo-17-[2-(piperidin-1-yl)ethoxy]-1,1a,3,4,5,6,9,10,18,19,20,21,22,22a-tetradecahydro-8H-7,10-methanocyclopropa[18,19][1,10,3,6] dioxadiazacyclononadecino[11,12-b]quinoline-8-carboxamide]",0.36,3.8,–,–
"C=C[C@@H]1C[C@]1(NC(=O)[C@@H]1C[C@@H]2CN1C(=O)[C@H](C1(C)CCCCC1)NC(=O)O[C@@H]1C[C@H]1CCCCCc1c(nc3ccccc3c1OCCN1CCOCC1)O2)C(=O)NS(=O)(=O)C1(C)CC1 [Example 123, (1aR,5S,8S,10R,22aR)-N-[(1R,2S)-2-ethenyl-1-{[(1-methylcyclopropyl)sulfonyl]carbamoyl}cyclopropyl]-5-(1-methylcyclohexyl)-17-[2-(morpholin-4-yl)ethoxy]-3,6-dioxo-1,1a,3,4,5,6,9,10,18,19,20,21,22,22a-tetradecahydro-8H-7,10-methanocyclopropa[18,19] [1,10,3,6]dioxadiazacyclononadecino [11,12-b]quinoline-8-carboxamide]",0.49,6.1,–,–
"C=C[C@@H]1C[C@]1(NC(=O)[C@@H]1C[C@@H]2CN1C(=O)[C@H](C1CCCCC1)NC(=O)O[C@@H]1C[C@H]1CCCCCc1c(nc3ccccc3c1OC1CCN(CCF)CC1)O2)C(=O)NS(=O)(=O)C1(C)CC1 [Example 272, 4-{[(1aR,5S,8S,10R,22aR)-5-cyclohexyl-8-{[(1R,2S)-2-ethenyl-1-{[(1-methylcyclopropyl)sulfonyl]carbamoyl}cyclopropyl]carbamoyl}-3,6-dioxo-1,1a,3,4,5,6,9,10,18,19,20,21,22,22a-tetradecahydro-8H-7,10-methanocyclopropa[18,19][1,10,3,6]dioxadiazacyclononadecino[11,12-b]quinolin-17-yl]oxy}-1-(2-fluoroethyl)piperidinium formate]",–,2.12,0.015,0.128
"C=C[C@@H]1CC1(NC(=O)[C@@H]1C[C@@H]2CN1C(=O)[C@H](C1CCCCC1)NC(=O)O[C@@H]1C[C@H]1CCCCCc1c(nc3ccccc3c1OCCCN1CCNCC1)O2)C(=O)NS(=O)(=O)C1(C)CC1 (stereo partly drawn) [Example 265, potassium ({(1R,2S)-1-[({(1aR,5S,8S,10R,22aR)-5-cyclohexyl-3,6-dioxo-17-[3-(piperazin-1-yl)propoxy]-1,1a,3,4,5,6,9,10,18,19,20,21,22,22a-tetradecahydro-8H-7,10-methanocyclopropa[18,19][1,10,3,6]dioxadiazacyclononadecino[11,12-b]quinolin-8-yl}carbonyl)amino]-2-ethenylcyclopropyl}carbonyl)[(1-methylcyclopropyl)sulfonyl]azanide]",–,1.15,0.016,0.11
"C=C[C@@H]1C[C@]1(NC(=O)[C@@H]1C[C@@H]2CN1C(=O)[C@H](C(C)(C)C)NC(=O)O[C@@H]1C[C@H]1CCCCCc1c(nc3ccccc3c1OCCCNC(C)C)O2)C(=O)NS(=O)(=O)C1(C)CC1 [Example 185, (1aR,5S,8S,10R,22aR)-5-tert-butyl-N-[(1R,2S)-2-ethenyl-1-{[(1-methylcyclopropyl)sulfonyl]carbamoyl}cyclopropyl]-3,6-dioxo-17-[3-(propan-2-ylamino)propoxy]-1,1a,3,4,5,6,9,10,18,19,20,21,22,22a-tetradecahydro-8H-7,10-methanocyclopropa[18,19][1,10,3,6] dioxadiazacyclononadecino[11,12-b] quinoline-8-carboxamide]",0.032,0.36,–,–
C=C[C@@H]1C[C@]1(NC(=O)[C@@H]1C[C@@H]2CN1C(=O)[C@H](C1CCCCC1)NC(=O)O[C@@H]1C[C@H]1CCCCCc1c(nc3ccccc3c1OCCCN1CCC(C(F)(F)F)CC1)O2)C(=O)NS(=O)(=O)C1(C)CC1 [Example 167],1.3,41,–,–
"C=C[C@@H]1C[C@]1(NC(=O)[C@@H]1C[C@@H]2CN1C(=O)[C@H](C(C)C)NC(=O)O[C@@H]1C[C@H]1CCCCCc1c(nc3ccccc3c1OCCN1CCOCC1)O2)C(=O)NS(=O)(=O)C1(C)CC1 [Example 124, (1aR,5S,8S,10R,22aR)-N-[(1R,2S)-2-ethenyl-1-{[(1-methylcyclopropyl)sulfonyl]carbamoyl}cyclopropyl]-17-[2-(morpholin-4-yl)ethoxy]-3,6-dioxo-5-(propan-2-yl)-1,1a,3,4,5,6,9,10,18,19,20,21,22,22a-tetradeca hydro-8H-7,10-methano cyclopropa[18,19][1,10,3,6] dioxadiazacyclonona decino[11,12-b]quinoline-8-carboxamide]",0.79,10,–,–
"C=C[C@@H]1C[C@]1(NC(=O)[C@@H]1C[C@@H]2CN1C(=O)[C@H](C(C)(C)C)NC(=O)O[C@@H]1C[C@H]1CCCCCc1c(nc3c(OC)cccc3c1OCCN1CCOCC1)O2)C(=O)NS(=O)(=O)C1(C)CC1 [Example 127, (1aR,5S,8S,10R,22aR)-5-tert-butyl-N-[(1R,2S)-2-ethenyl-1-{[(1-methylcyclopropyl)sulfonyl]carbamoyl}cyclopropyl]-13-methoxy-17-[2-(morpholin-4-yl)ethoxy]-3,6-dioxo-1,1a,3,4,5,6.9, 10,18,19,20,21,22,22a-tetradecahydro-8H-7,10-methanocyclopropa [18,19][1,10,3,6]dioxadiaza cyclononadecino[11,12-b]quinoline-8-carboxamide]",0.11,2.1,–,–
